For 18 molecules, TGI and GI50 results are on record in PubChem BioAssay (NCI).

Molecules are shown by their SMILES.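 Cells were grown in 96-well plates and exposed to each compound for 48 hours at five concentrations; endpoints were interpolated linearly between bracketing concentrations, or set to the highest concentration if not reached. GI50 marks 50% less growth. TGI marks complete inhibition of growth.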 Bounds are passed on as bounds.

Among the test systems are NCI-H23 lung; SR leukemia; SK-MEL-5 melanoma; BT-549 breast; OVCAR-3 ovarian; HL-60(TB) leukemia; UACC-62 melanoma; NCI/ADR-RES ovarian.
What all share (test): inhibition of tumour cell growth, NCI panel, 48 h

Regarding `CC(=O)OCC1OC(n2c(C)c(C)cc(C#N)c2=S)C(OC(C)=O)C(OC(C)=O)C1OC(C)=O` (centres undefined), the TGI with NCI-H23 lung, in the test on SR leukemia, in the test with SK-MEL-5 melanoma, with BT-549 breast, with OVCAR-3 ovarian and with HL-60(TB) leukemia was more than 100 µM throughout. In the test on UACC-62 melanoma, this molecule displayed a TGI of more than 100 µM.
For the molecule `CCN(CC)Cc1cc(N=Nc2c(O)ccc3c(N=Nc4ccc(O)c(CN(CC)CC)c4)c(O)ccc23)ccc1O`, the TGI in the test with NCI-H23 lung was 12.7 µM; with NCI/ADR-RES ovarian, 33 µM; with SR leukemia it was 8.53 µM; with SK-MEL-5 melanoma, 7.42 µM; in the test on BT-549 breast it was 9.11 µM; with OVCAR-3 ovarian, more than 20.7 µM. This molecule also yielded a TGI with UACC-62 melanoma of 16.2 µM.
Take `O=C1c2c(c3c4cc(F)ccc4oc3c3[nH]c4ccccc4c23)C(=O)N1O`: the GI50 in the test on NCI-H23 lung was 1.65 µM; in the test on NCI/ADR-RES ovarian it was 2.9 µM; in the test on SK-MEL-5 melanoma, 1.23 µM; with OVCAR-3 ovarian it was 2.53 µM; in the test on UACC-62 melanoma, 1.48 µM. Moreover, the TGI was 8.45 µM with NCI-H23 lung; more than 100 µM in the test with NCI/ADR-RES ovarian; 2.6 µM with SK-MEL-5 melanoma; 7.96 µM with OVCAR-3 ovarian; 3.41 µM with UACC-62 melanoma.
`COc1ccc(N2C(=O)C3ON(Cc4ccc(CC(N)=O)cc4)C(c4c5ccccc5c(C)c5ccccc45)C3C2=O)cc1` (centres undefined): the TGI is more than 100 µM in the test on NCI-H23 lung; more than 100 µM in the test with NCI/ADR-RES ovarian; 36.8 µM with SR leukemia; more than 100 µM in the test with BT-549 breast; more than 100 µM in the test on OVCAR-3 ovarian; 51.2 µM with HL-60(TB) leukemia. In the test with UACC-62 melanoma, this molecule came in with a TGI of more than 100 µM.
As to `CC(O)C(CO)NC(=O)C1CSSCC(NC(=O)C(N)Cc2ccccc2)C(=O)NC(Cc2ccccc2)C(=O)NC(Cc2c[nH]c3ccccc23)C(=O)NC(CCCCN)C(=O)NC(C(C)O)C(=O)N1` (centres undefined), the TGI with NCI-H23 lung, in the test on NCI/ADR-RES ovarian, in the test on SR leukemia, in the test on SK-MEL-5 melanoma, in the test on OVCAR-3 ovarian and in the test on HL-60(TB) leukemia was more than 100 µM each time. In the test with UACC-62 melanoma, this molecule returned a TGI of more than 100 µM.
As for `O=c1cc(NNc2ccccc2)[nH]c(=O)[nH]1`, the TGI was more than 100 µM in the test on NCI-H23 lung; 67.9 µM in the test on NCI/ADR-RES ovarian; 84.6 µM in the test on SR leukemia; more than 100 µM in the test with SK-MEL-5 melanoma; 30.9 µM in the test on OVCAR-3 ovarian; 64.6 µM with HL-60(TB) leukemia. In the test on UACC-62 melanoma, this molecule gave a TGI of 28.5 µM.
With `O=C(Nc1ccccc1C(=O)NCc1ccccc1)/C(=C/c1ccccc1O)NC(=O)c1ccccc1`, the TGI in the test on NCI-H23 lung, with NCI/ADR-RES ovarian, with SR leukemia, in the test on SK-MEL-5 melanoma, in the test with OVCAR-3 ovarian and in the test with HL-60(TB) leukemia was more than 100 µM in each case. In the test with UACC-62 melanoma, this molecule came in with a TGI of more than 100 µM.
`CN(C)N1C(=O)C(=O)N(c2cccc3ccccc23)C1=O`: the TGI in the test with NCI-H23 lung, with NCI/ADR-RES ovarian, in the test on SR leukemia, in the test with SK-MEL-5 melanoma, in the test on OVCAR-3 ovarian and with HL-60(TB) leukemia was more than 10 µM each time. Further, in the test with UACC-62 melanoma, the TGI was more than 10 µM.
Turning to `COc1c(C(=O)/C(=N/Nc2ccc(C(=O)O)cc2)C(C)=O)c(O)cc2occc12`, the TGI in the test with NCI-H23 lung, with NCI/ADR-RES ovarian, with SR leukemia, with SK-MEL-5 melanoma, in the test on OVCAR-3 ovarian and in the test with HL-60(TB) leukemia was more than 100 µM throughout. This molecule showed a TGI with UACC-62 melanoma of more than 100 µM.
Turning to `CC1=C(C)C(=O)OC(C(C)(O)C2(O)CC3OC34C3CC(O)C56OC5C=CC(=O)C6(C)C3CCC42C)C1` (centres undefined), the TGI with NCI-H23 lung is 8.64 µM; in the test on SK-MEL-5 melanoma, more than 24.1 µM; in the test on BT-549 breast, 3.11 µM; in the test on OVCAR-3 ovarian, 6.23 µM; in the test on UACC-62 melanoma, 3.15 µM.
Regarding `CCOC(CBr)OC1C(=O)OCC1(C)C` (centres undefined), the TGI with NCI-H23 lung, in the test with NCI/ADR-RES ovarian, in the test on SR leukemia, in the test on SK-MEL-5 melanoma, in the test on BT-549 breast and in the test with HL-60(TB) leukemia was more than 100 µM each time. The TGI in the test with UACC-62 melanoma is more than 100 µM.
Turning to `C/C(Cc1ccc2c(c1)OCO2)=N\N=c1\sc2ccccc2n1C`, the TGI with NCI-H23 lung, with NCI/ADR-RES ovarian, in the test with SK-MEL-5 melanoma, in the test on BT-549 breast, in the test on OVCAR-3 ovarian and in the test with HL-60(TB) leukemia was more than 100 µM in each case. This molecule came in with a TGI in the test with UACC-62 melanoma of more than 100 µM.
Take `COc1cc2ncnc(NS(=O)(=O)c3cc4ccccc4s3)c2cc1OC`: the TGI in the test on NCI-H23 lung, in the test on NCI/ADR-RES ovarian, in the test with SR leukemia, with SK-MEL-5 melanoma, with BT-549 breast and in the test on OVCAR-3 ovarian was more than 100 µM each time. Besides, the TGI with UACC-62 melanoma is more than 100 µM.
As to `O=C1C=C(NCCc2ccc(O)c([N+](=O)[O-])c2)C(=O)c2[nH]cnc21`, the TGI with NCI-H23 lung is 45 µM; with NCI/ADR-RES ovarian it was more than 100 µM; in the test on SK-MEL-5 melanoma it was 30.3 µM; in the test on OVCAR-3 ovarian it was 46.1 µM; in the test with HL-60(TB) leukemia, 47.8 µM; with UACC-62 melanoma, 40.7 µM.
For `O=C(N/N=C\c1ccc(Cl)cc1)Nc1ccc2ccccc2c1`, the TGI with NCI-H23 lung, with NCI/ADR-RES ovarian, in the test on SR leukemia, in the test on SK-MEL-5 melanoma, with BT-549 breast and in the test with OVCAR-3 ovarian was more than 100 µM throughout. This molecule also came in with a TGI in the test with UACC-62 melanoma of more than 100 µM.
For the molecule `O=C(O)c1ccc2c(O)c(O)ccc2c1`, the TGI was found to be 50.5 µM with NCI-H23 lung; 55.3 µM in the test on NCI/ADR-RES ovarian; 13.8 µM in the test on SR leukemia; 35.6 µM in the test with SK-MEL-5 melanoma; 40.8 µM with BT-549 breast; 34.5 µM in the test with OVCAR-3 ovarian.
As to `O=C(CC(C(=O)c1ccsc1)c1cccs1)c1ccccc1` (centres undefined), the TGI with NCI-H23 lung is 93.3 µM; in the test on SR leukemia it was more than 100 µM; in the test on SK-MEL-5 melanoma, more than 100 µM; in the test with OVCAR-3 ovarian, more than 100 µM; in the test on HL-60(TB) leukemia it was more than 100 µM; in the test on UACC-62 melanoma it was more than 100 µM.
On to `O=C(Cn1c2ccc(Br)cc2c2nc3ccccc3nc21)NCc1ccccc1`, for which the TGI in the test with NCI-H23 lung, in the test with NCI/ADR-RES ovarian, in the test with SR leukemia, with SK-MEL-5 melanoma, in the test with BT-549 breast and in the test on OVCAR-3 ovarian was more than 100 µM throughout. The molecule also returned a TGI in the test on UACC-62 melanoma of 93.4 µM.
